Counter-ions that a name gives are not always drawn.

The first assay can be described thus: LAWSON test: protection against chloroform-induced ventricular fibrillation. In kind it is in vivo, mice. Particulars: Mus musculus, po, 0.5 h; female mice, intragastric, 30 minutes before chloroform; salts (hydrochloride); read-out: AD50 (dose protecting 50% of the animals against ventricular fibrillation). How it is done:
The arrhythmia was induced, in this test, by inhalation of chloroform until breathing stopped.
For each dose of the substance to be studied, batches of 10 female mice, each of about 20 g, were used. These mice had been fasting for 18 hours before the test. A batch of 10 animals was used as control group.
A dose of the compound to be studied was first administered by intragastric route except to the controls which only received the solvent used with the compound in question. Thirty minutes later, the animals were placed under a dome-shaped receptacle containing a high concentration of chloroform obtained by means of a strongly impregnated pad.
The animals were removed when totally asphyxiated (about 2 minutes later), the thorax was rapidly opened and the ventricular rhythm observed. The dose of the compound under study which protected 50% of the animals against ventricular fibrillation was then determined.
This protective dose is expressed as AD50 in mg/kg in the following Table. […]
Another comparative test was performed under the same conditions with
several compounds included within the scope of U.S. Pat. No. 3,882,129 at
the single dose of 100 mg/kg by intragastric route.
The following results were obtained which are expressed in percentage of protection obtained against the arrhythmic effect at the studied dose: […]
As for `NC(=O)O[C@@H]1CCN(CCCOc2ccc(Cl)cc2)[C@H]2CCCC[C@H]12` (relative stereo) [hydrogen, 3, O, 4-chloro-phenyl, axial, 4-Carbamoyloxy-1-[3-(4-chloro-phenoxy)-propyl]-trans-decahydroquinoline hydrochloride (axial form)], the ED50 was more than 100 mg/kg.
Same read-out and setting: the result for `NC(=O)O[C@@H]1CCN(CCOc2ccc(Br)cc2)[C@H]2CCCC[C@H]12` (relative stereo) [hydrogen, 2, O, 4-bromo-phenyl, axial, 1-[2-(4-Bromo-phenoxy)-ethyl]-4 carbamoyloxy-trans-decahydroquinoline hydrochloride (axial form)] reads 90 mg/kg; that for `COc1ccc(OCCCN2CC[C@@H](OC(N)=O)[C@H]3CCCC[C@@H]32)cc1` (relative stereo) [hydrogen, 3, O, 4-methoxy-phenyl, axial, 4-Carbamoyloxy-1-[3-(4-methoxy-phenoxy)-propyl]-trans-decahydroquinoline hydrochloride (axial form)], more than 100 mg/kg.
As to `COc1cc(C(C)=O)ccc1OCCCN1CC[C@@H](OC(=O)Nc2ccc(Br)cc2)[C@H]2CCCC[C@@H]21` (relative stereo) [1-[3-(4-Acetyl-2-methoxy-phenoxy)-propyl]-4-[4-(bromo-phenyl)-carbamoyloxy]-trans-decahydroquinoline hydrochloride (axial form)], the ED50 is more than 100 mg/kg.
Still for that read-out and setting: the figure for `COc1ccccc1OCCN1CC[C@@H](OC(N)=O)[C@H]2CCCC[C@@H]21` (relative stereo) [hydrogen, 2, O, 2-methoxy-phenyl, axial, 4-Carbamoyloxy-1-[2-(2-methoxy-phenoxy)-ethyl]-trans-decahydroquinoline hydrochloride (axial form)] is 75 mg/kg; for `CCCCNC(=O)O[C@@H]1CCN(CCCOc2ccc(F)cc2)[C@H]2CCCC[C@H]12` (relative stereo) [n-butyl, 3, O, 4-fluoro-phenyl, axial, 4-(N-n-butylcarbamoyloxy)-1-[3-(4-fluoro-phenoxy)-propyl]-trans-decahydroquinoline hydrochloride (axial form)] it is 50 mg/kg; for `N#Cc1ccc(OCCCN2CC[C@@H](OC(N)=O)[C@H]3CCCC[C@@H]32)cc1` (relative stereo) [hydrogen, 3, O, 4-cyano-phenyl, axial, 4-Carbamoyloxy-1-[3-(4-cyano-phenoxy)-propyl]-trans-decahydroquinoline hydrochloride (axial form)] it is 30 mg/kg.
For `NC(=O)O[C@@H]1CCN(CCOc2c(Cl)cccc2Cl)[C@H]2CCCC[C@H]12` (relative stereo) [4-Carbamoyloxy-1-[2-(2,6-dichloro-phenoxy)-ethyl]-trans-decahydroquinoline hydrochloride (axial form)], the ED50 amounted to 50 mg/kg.
Turning to `NC(=O)O[C@@H]1CCN(CCCOc2ccc3ccccc3c2)[C@H]2CCCC[C@H]12` (relative stereo) [hydrogen, 3, O, 2-naphthyl, axial, 4-Carbamoyloxy-1-[3-(2-naphthyloxy)-propyl]-trans-decahydroquinoline hydrochloride (axial form)], the ED50 was more than 100 mg/kg.
Still for that read-out and setting: the result for `CCCNC(=O)O[C@@H]1CCN(CCCOc2ccc(F)cc2)[C@H]2CCCC[C@H]12` (relative stereo) [n-propyl, 3, O, 4-fluoro-phenyl, axial, 1-[3-(4-Fluoro-phenoxy)-propyl]-4-(N-n-propyl-carbamoyloxy)-trans-decahydroquinoline hydrochloride (axial form)] reads 80 mg/kg; that for `NC(=O)O[C@@H]1CCN(CCCSc2ccc(F)cc2)[C@H]2CCCC[C@H]12` (relative stereo) [hydrogen, 3, S, 4-fluoro-phenyl, axial, 4-Carbamoyloxy-1-[3-(4-fluoro-phenylthio)-propyl]-trans-decahydroquinoline hydrochloride (axial form)], more than 100 mg/kg; that for `NC(=O)O[C@@H]1CCN(CCCOc2cccc3ccccc23)[C@H]2CCCC[C@H]12` (relative stereo) [hydrogen, 3, O, 1-naphthyl, axial, 4-Carbamoyloxy-1-[3-(1-naphthyloxy)-propyl]-trans-decahydroquinoline hydrochloride (axial form)], more than 100 mg/kg.
Consider `NC(=O)O[C@@H]1CCN(CCOc2ccc(F)cc2)[C@H]2CCCC[C@H]12` (relative stereo) [hydrogen, 2, O, 4-fluoro-phenyl, axial, 4-Carbamoyloxy-1-[2-(4-fluoro-phenoxy)-ethyl]-trans-decahydroquinoline hydrochloride (axial form)], for which the ED50 is more than 100 mg/kg.
Same read-out and setting: the result for `NC(=O)O[C@H]1CCN(CCCOc2ccc(F)cc2)[C@H]2CCCC[C@H]12` (relative stereo) [4-Carbamoyloxy-1-[3-(4-fluoro-phenoxy)-propyl]-trans-decahydroquinoline hydrochloride (equatorial form)] reads 45 mg/kg; that for `NC(=O)O[C@@H]1CCN(CCOc2cccc3ccccc23)[C@H]2CCCC[C@H]12` (relative stereo) [hydrogen, 2, O, 1-naphthyl, axial, 4-Carbamoyloxy-1-[2-(1-naphthyloxy)-ethyl]-trans-decahydroquinoline hydrochloride (axial form)], 75 mg/kg; that for `O=C(Nc1ccc(Br)cc1)O[C@@H]1CCN(CCCOc2ccc(F)cc2)[C@H]2CCCC[C@H]12` (relative stereo) [4-[(4-Bromo-phenyl)-carbamoyloxy]-[1-3-(4-fluoro-phenoxy)-propyl]-trans-decahydroquinoline hydrochloride (axial form)], 150 mg/kg.
Same read-out and setting: the result for `NC(=O)O[C@@H]1CCN(CCCOc2ccc(Br)cc2)[C@H]2CCCC[C@H]12` (relative stereo) [hydrogen, 3, O, 4-bromo-phenyl, axial, 1-[3-(4-Bromo-phenoxy)-propyl]-4-carbamoyloxy-trans-decahydroquinoline hydrochloride (axial form)] reads 65 mg/kg; that for `Cc1ccc(NC(=O)O[C@H]2CCN(CCCOc3ccc(F)cc3)[C@H]3CCCC[C@H]23)cc1Cl` (relative stereo) [4-[(3-Chloro-4-methyl-phenyl)-carbamoyloxy]-1-[3-(4-fluoro-phenoxy)-propyl]-trans-decahydroquinoline hydrochloride (equatorial form)], 30 mg/kg; that for `CC(=O)c1ccc(OCCCN2CC[C@@H](OC(N)=O)[C@H]3CCCC[C@@H]32)cc1` (relative stereo) [hydrogen, 3, O, 4-acetyl-phenyl, axial, 1-[3-(4-Acetyl-phenoxy)-propyl]-4-carbamoyloxy-trans-decahydroquinoline hydrochloride (axial form)], more than 100 mg/kg.
Still for that read-out and setting: the figure for `COc1cc(C(C)=O)ccc1OCCCN1CC[C@@H](OC(N)=O)[C@H]2CCCC[C@@H]21` (relative stereo) [1-[3-(4-Acetyl-2-methoxy-phenoxy)-propyl]-4-carbamoyloxy-trans-decahydroquinoline hydrochloride (axial form)] is more than 100 mg/kg.
As to `NC(=O)O[C@@H]1CCN(CCCOc2ccccc2)[C@H]2CCCC[C@H]12` (relative stereo) [hydrogen, 3, O, phenyl, axial, 4-Carbamoyloxy-1-(3-phenoxy-propyl)-trans-decahydroquinoline hydrochloride (axial form)], the ED50 was more than 100 mg/kg.
On to `NC(=O)O[C@@H]1CCN(CCOc2ccc3ccccc3c2)[C@H]2CCCC[C@H]12` (relative stereo) [hydrogen, 2, O, 2-naphthyl, axial, 4-Carbamoyloxy-1-[2-(2-naphthyloxy)-ethyl]-trans-decahydroquinoline hydrochloride (axial form)], for which the ED50 turned out to be 50 mg/kg.
The same measure, in the same setting: the figure for `Cc1ccc(OCCCN2CC[C@@H](OC(N)=O)[C@H]3CCCC[C@@H]32)cc1` (relative stereo) [hydrogen, 3, O, 4-methyl-phenyl, axial, 4-Carbamoyloxy-1-[3-(4-methyl-phenoxy)-propyl]-trans-decahydroquinoline hydrochloride (axial form)] is more than 100 mg/kg.
Still for that read-out and setting: the figure for `O=C(Nc1ccccc1)O[C@@H]1CCN(CCCOc2ccc(F)cc2)[C@H]2CCCC[C@H]12` (relative stereo) [phenyl, 3, O, 4-fluoro-phenyl, axial, 1-[3-(4-Fluoro-phenoxy)-propyl]-4-(N-phenylcarbamoyloxy)-trans-decahydroquinoline hydrochloride (axial form)] is more than 100 mg/kg.
`Cc1ccc(NC(=O)O[C@@H]2CCN(CCCOc3ccc(F)cc3)[C@H]3CCCC[C@H]23)cc1Cl` (relative stereo) [4-[3-(Chloro-4-methyl-phenyl)-carbamoyloxy]-1-[3-(4-fluoro-phenoxy)-propyl]-trans-decahydroquinoline hydrochloride (axial form)]: the ED50 is more than 100 mg/kg.

The same assay, now with this note: female mice, intragastric, 30 minutes before chloroform; salts (hydrochloride).
For `CNC(=O)O[C@@H]1CCN(CCCOc2ccc(F)cc2)[C@H]2CCCC[C@H]12` (relative stereo) [methyl, 3, O, 4-fluoro-phenyl, axial, 1-[3-(4-Fluoro-phenoxy)-propyl]-4-(N-methylcarbamoyloxy)-trans-decahydroquinoline hydrochloride (axial form)], the “AD50 (dose protecting 50% of the animals against ventricular fibrillation)” value was determined as 55 mg/kg.

The values above are taken from patent US4332805A, “Decahydroquinolinol derivatives and methods of treating cardiac arrythmias or inducing local anaesthesia with them” (priority 1979, dated 1982).
